This note sets out measurements from patent publication US7671085B2, “Non-steroidal farnesoid X receptor modulators and methods for the use thereof” (The Salk Institute for Biological Studies, priority 2002, dated 2010).

This test deals with T1, FXR (Homo sapiens, UniProt Q96RI1).
T1 construct: using a full length FXR on a natural response element; expressed in transfected cells
T1 sequence (Q96RI1 1-486): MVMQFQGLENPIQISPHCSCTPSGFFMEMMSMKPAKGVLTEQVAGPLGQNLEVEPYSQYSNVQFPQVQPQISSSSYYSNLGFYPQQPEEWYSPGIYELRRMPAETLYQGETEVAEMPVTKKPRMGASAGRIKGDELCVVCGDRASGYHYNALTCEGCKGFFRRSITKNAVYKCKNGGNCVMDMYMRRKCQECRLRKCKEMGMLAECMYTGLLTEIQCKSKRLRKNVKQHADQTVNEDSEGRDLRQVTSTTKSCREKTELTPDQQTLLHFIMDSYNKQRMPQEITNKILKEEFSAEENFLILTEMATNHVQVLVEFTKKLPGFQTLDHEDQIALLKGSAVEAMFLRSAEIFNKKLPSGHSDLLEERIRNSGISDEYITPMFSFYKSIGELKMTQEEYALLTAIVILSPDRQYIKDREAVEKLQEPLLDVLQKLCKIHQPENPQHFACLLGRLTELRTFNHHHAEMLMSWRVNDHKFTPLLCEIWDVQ
In words: cell-based FXR transcription assay, FXR responsive promoter linked to luciferase reporter. The conditions noted are these: for EC50 / RE^a: cell-based FXR reporter assay; for EC50: determined with Prism 3.0; for RE^a: footnote a not given; for FXR activation, in words: cell-based reporter assay, SAR discussion. An excerpt: In addition to ensuring that only cell permeable compounds were selected for further optimization, this approach allows for the detection of FXR activation in a natural system (i.e., correct folding of the protein and in the presence of a complete compliment of co-activators and co-repressors).
The feasibility of creating high throughput screens (HTS) for ORs was explored using FXR as a candidate orphan receptor (OR) with a known activator, chenodeoxycholic acid (CDCA) as a ligand. The screen is based on the co-transfection of a full-length receptor with the reporter vector containing a natural hormone response element under a minimal eukaryotic promoter. […] Using this 384-well format, the high throughput screening (HTS) approach to FXR as a candidate OR was employed. […] A central question in the feasibility studies is whether this library is suitable for screening for nuclear receptor ligands. Samples of this library were first reformatted into a 384-well format and then subjected to the FXR cell-based assays described above and assessed for FXR-mediated transcriptional activity. Cells were exposed to approximately 10 μM of sample for 18 hrs prior to washing and luciferase analysis.
EC50 values were determined with Prism 3.0 software via the activity of the subject compound in the previously described cell based assay.
A general note: Reporter assays use an easily measured gene product as a stand-in for the process of interest.

By EC50 is commonly meant the concentration needed to bring the measured effect to its halfway point. Higher therefore signals a need for much substance.

“Also recorded” adds a separate entry of the source.

On to `COC(=O)/C=C/c1cccc(N(Cc2ccc(/C=C/c3cccc(Cl)c3)cc2)C(=O)C(C)C)c1` [Compound 181], for which a half-maximal effect (EC50) was put at 164 nM; the “RE^a” value came out at 1.09; the “FXR activation, in words” value was “excellent activity”.

Regarding `COC(=O)/C=C/c1cccc(N(Cc2ccc(/C=C/c3cccc(Cl)c3)cc2)C(=O)NC(C)C)c1` [Compound 182], the “RE^a” value came out at 0.59.

As to `COC(=O)C=Cc1cccc(N(Cc2ccc(C=Cc3cc(C(F)(F)F)cc(C(F)(F)F)c3)cc2)C(=O)C2CCCCC2)c1` [Compound 183], it took 1470 nM to reach a half-maximal effect (EC50) and the “RE^a” value was 0.15.

In the case of `COC(=O)/C=C/c1cccc(N(Cc2ccc(/C=C/c3cc(C(F)(F)F)cc(C(F)(F)F)c3)cc2)C(=O)C(C)C)c1` [Compound 184], the “RE^a” value is reported as 0.13.

For `COC(=O)/C=C/c1cccc(N(Cc2ccc(/C=C/c3cc(C(F)(F)F)cc(C(F)(F)F)c3)cc2)C(=O)NC(C)C)c1` [Compound 185], the “RE^a” value was found to be 0.13.

Take `COC(=O)C=Cc1cccc(N(Cc2ccc(C=Cc3cccc(C(F)(F)F)c3)cc2)C(=O)C2CCCCC2)c1` [Compound 186]: the concentration giving a half-maximal response (EC50) was determined as 937 nM and the “RE^a” value is 0.35.

Consider `COC(=O)/C=C/c1cccc(N(Cc2ccc(/C=C/c3cccc(C(F)(F)F)c3)cc2)C(=O)C(C)C)c1` [Compound 187], for which the “RE^a” value is reported as 0.70.

For the compound `COC(=O)/C=C/c1cccc(N(Cc2ccc(/C=C/c3cccc(C(F)(F)F)c3)cc2)C(=O)NC(C)C)c1` [Compound 188], the “RE^a” value is 0.31.

Take `COC(=O)C=Cc1cccc(N(Cc2ccc(C=Cc3c(F)cccc3F)cc2)C(=O)C2CCCCC2)c1` [Compound 189]: the “RE^a” value is reported as 0.94 and the “FXR activation, in words” value is given as “excellent activity”.

As for `COC(=O)/C=C/c1cccc(N(Cc2ccc(/C=C/c3c(F)cccc3F)cc2)C(=O)C(C)C)c1` [Compound 190], the half-maximal effective concentration (EC50) amounted to 108 nM; the “RE^a” value was 0.79; the “FXR activation, in words” value is “excellent activity”.

Turning to `COC(=O)/C=C/c1cccc(N(Cc2ccc(/C=C/c3c(F)cccc3F)cc2)C(=O)NC(C)C)c1` [Compound 191], the “RE^a” value is reported as 0.21.

Take `COC(=O)C=Cc1cccc(N(Cc2ccc(C=Cc3ccccc3F)cc2)C(=O)C2CCCCC2)c1` [Compound 192]: the “RE^a” value came out at 1.41 and the “FXR activation, in words” value was “excellent activity; also recorded: among the most active”.

Turning to `COC(=O)/C=C/c1cccc(N(Cc2ccc(/C=C/c3ccccc3F)cc2)C(=O)C(C)C)c1` [Compound 193], the “RE^a” value is listed as 1.17 and the “FXR activation, in words” value was “excellent activity”.

For `COC(=O)/C=C/c1cccc(N(Cc2ccc(/C=C/c3ccccc3F)cc2)C(=O)NC(C)C)c1` [Compound 194], the “RE^a” value turned out to be 0.69.

Consider `COC(=O)C=Cc1cccc(N(Cc2ccc(C=Cc3c(C)cc(C)cc3C)cc2)C(=O)C2CCCCC2)c1` [Compound 195], for which the “RE^a” value came out at 0.24 and the “FXR activation, in words” value is “among the least active”.

As for `COC(=O)/C=C/c1cccc(N(Cc2ccc(/C=C/c3c(C)cc(C)cc3C)cc2)C(=O)C(C)C)c1` [Compound 196], the “RE^a” value worked out at 0.30.

As to `COC(=O)/C=C/c1cccc(N(Cc2ccc(/C=C/c3c(C)cc(C)cc3C)cc2)C(=O)NC(C)C)c1` [Compound 197], the “RE^a” value is on record as 0.14.

For `COC(=O)/C=C/c1cccc(N(Cc2ccc(/C=C/c3ccccc3)cc2)C(=O)C(C)C)c1` [Compound 198], the “RE^a” value is recorded as 1.33 and the “FXR activation, in words” value was “excellent activity”.

Consider `COC(=O)/C=C/c1cccc(N(Cc2ccc(/C=C/c3ccccc3)cc2)C(=O)NC(C)C)c1` [Compound 200], for which the “RE^a” value was 1.38.

With `COC(=O)C=Cc1cccc(N(Cc2ccc(C=Cc3cccc(F)c3)cc2)C(=O)C2CCCCC2)c1` [Compound 201], the “RE^a” value is given as 1.36 and the “FXR activation, in words” value is recorded as “excellent activity; also recorded: among the most active”.

On to `COC(=O)/C=C/c1cccc(N(Cc2ccc(/C=C/c3cccc(F)c3)cc2)C(=O)C(C)C)c1` [Compound 202], for which the “RE^a” value worked out at 1.33 and the “FXR activation, in words” value is given as “excellent activity”.

As for `COC(=O)/C=C/c1cccc(N(Cc2ccc(/C=C/c3cccc(F)c3)cc2)C(=O)NC(C)C)c1` [Compound 203], the “RE^a” value is reported as 0.61.

With `COC(=O)C=Cc1cccc(N(Cc2ccc(C=Cc3ccc(F)cc3)cc2)C(=O)C2CCCCC2)c1` [Compound 204], the “RE^a” value came out at 0.53 and the “FXR activation, in words” value was “excellent activity; also recorded: among the most active”.

Consider `COC(=O)/C=C/c1cccc(N(Cc2ccc(/C=C/c3ccc(F)cc3)cc2)C(=O)C(C)C)c1` [Compound 205], for which the EC50 was 120 nM; the “RE^a” value is 1.19; the “FXR activation, in words” value was “excellent activity”.

In the case of `COC(=O)/C=C/c1cccc(N(Cc2ccc(/C=C/c3ccc(F)cc3)cc2)C(=O)NC(C)C)c1` [Compound 206], the “RE^a” value is on record as 0.91.

Take `COC(=O)C=Cc1cccc(N(Cc2ccc(C=Cc3ccccn3)cc2)C(=O)C2CCCCC2)c1` [Compound 207]: the “RE^a” value was found to be 0.81.

Take `COC(=O)C=Cc1cccc(N(Cc2ccc(C=Cc3ccccn3)cc2)C(=O)C(C)C)c1` [Compound 208]: the “RE^a” value worked out at 0.62.

Regarding `COC(=O)C=Cc1cccc(N(Cc2ccc(C=Cc3ccccn3)cc2)C(=O)NC(C)C)c1` [Compound 209], the “RE^a” value is given as 0.68.

Regarding `COC(=O)C=Cc1cccc(N(Cc2ccc(C=Cc3scnc3C)cc2)C(=O)C2CCCCC2)c1` [Compound 210], the “RE^a” value is on record as 0.53.

In the case of `COC(=O)C=Cc1cccc(N(Cc2ccc(C=Cc3scnc3C)cc2)C(=O)C(C)C)c1` [Compound 211], the “RE^a” value is given as 0.32.

Regarding `COC(=O)C=Cc1cccc(N(Cc2ccc(C=Cc3scnc3C)cc2)C(=O)NC(C)C)c1` [Compound 212], the “RE^a” value stood at 0.42.

Consider `COC(=O)/C=C/c1cccc(N(Cc2ccc(-c3ccc(F)c(F)c3)cc2)C(=O)C2CCCCC2)c1` [Compound 213], for which the “RE^a” value was determined as 1.70 and the “FXR activation, in words” value was “excellent activity”.

Regarding `COC(=O)/C=C/c1cccc(N(Cc2ccc(-c3ccc(F)c(F)c3)cc2)C(=O)C(C)C)c1` [Compound 214], the “RE^a” value worked out at 1.15.

Take `COC(=O)/C=C/c1cccc(N(Cc2ccc(-c3ccc(F)c(F)c3)cc2)C(=O)NC(C)C)c1` [Compound 215]: the “RE^a” value was 0.23.

As to `COC(=O)/C=C/c1cccc(N(Cc2ccc(-c3ccc(SC)cc3)cc2)C(=O)C(C)C)c1` [Compound 216], the “RE^a” value was 0.98 and the “FXR activation, in words” value is listed as “excellent activity”.

For `COC(=O)/C=C/c1cccc(N(Cc2ccc(-c3ccc(SC)cc3)cc2)C(=O)NC(C)C)c1` [Compound 217], the “RE^a” value was 0.23.

For the compound `COC(=O)/C=C/c1cccc(N(Cc2ccc(-c3ccccc3OC)cc2)C(=O)C2CCCCC2)c1` [Compound 218], the response was half-maximal at 359 nM (EC50) and the “RE^a” value worked out at 0.49.

Turning to `COC(=O)/C=C/c1cccc(N(Cc2ccc(-c3ccccc3OC)cc2)C(=O)C(C)C)c1` [Compound 219], the “RE^a” value came to 0.28.

Consider `COC(=O)/C=C/c1cccc(N(Cc2ccc(-c3ccccc3OC)cc2)C(=O)NC(C)C)c1` [Compound 220], for which the “RE^a” value turned out to be 0.09.

`COC(=O)/C=C/c1cccc(N(Cc2ccc(-c3cc(Cl)cc(Cl)c3)cc2)C(=O)C(C)C)c1` [Compound 221]: the 50% effective concentration (EC50) came out at 661 nM and the “RE^a” value is 0.54.

In the case of `COC(=O)/C=C/c1cccc(N(Cc2ccc(-c3cc(Cl)cc(Cl)c3)cc2)C(=O)NC(C)C)c1` [Compound 222], the EC50 was under 10000 nM and the “RE^a” value was determined as 0.10.

Take `COC(=O)/C=C/c1cccc(N(Cc2ccc(-c3cccc(OC)c3)cc2)C(=O)C2CCCCC2)c1` [Compound 223]: the “RE^a” value turned out to be 1.51.

In the case of `COC(=O)/C=C/c1cccc(N(Cc2ccc(-c3cccc(OC)c3)cc2)C(=O)C(C)C)c1` [Compound 224], the “RE^a” value came out at 1.28 and the “FXR activation, in words” value is “excellent activity”.

`COC(=O)/C=C/c1cccc(N(Cc2ccc(-c3cccc(OC)c3)cc2)C(=O)NC(C)C)c1` [Compound 225]: the “RE^a” value is given as 0.41.

`CCOc1cccc(-c2ccc(CN(C(=O)C3CCCCC3)c3cccc(/C=C/C(=O)OC)c3)cc2)c1` [Compound 226]: the “RE^a” value was determined as 1.37.

`CCOc1cccc(-c2ccc(CN(C(=O)C(C)C)c3cccc(/C=C/C(=O)OC)c3)cc2)c1` [Compound 227]: the “RE^a” value amounted to 1.03.

For the compound `CCOc1cccc(-c2ccc(CN(C(=O)NC(C)C)c3cccc(/C=C/C(=O)OC)c3)cc2)c1` [Compound 228], the “RE^a” value is 0.33.
